Results reported in US20080109040A1, “METHOD OF TREATING ARRHYTHMIAS” (priority 2002, published 2008).

Experiments:
anesthetized dog = assay: QT prolongation and arrhythmia induction in anesthetized dog with AV block and phenylephrine challenge
Method: Dogs were pretreated with Atravet (0.07 mg/kg sc) and then 15 minutes later anesthetized with ketamine (5.3 mg/kg iv) and valium (0.25 mg/kg iv) followed by isoflurane (1-2%), intubated and subjected to mechanical ventilation. They were then subjected to AV block with radiofrequency ablation. A median sternotomy was performed and catheters were inserted into a femoral artery for blood pressure (BP) recording and into both femoral veins for infusion of test drugs. Bipolar electrodes were inserted into both ventricles for programmed stimulation determination of refractory periods (extrastimulus technique), as well as for evaluation of QT interval and QRS duration at various controlled basic cycle lengths (BCLs). TdP was induced by challenges of phenylephrine, which were given as bolus intravenous doses of 10, 20, 30, 40 and 50 μg/kg. After each dose, the ECG was monitored continuously to detect arrhythmias. […] Test drug effects were evaluated as per protocols below.
Data are presented as the mean ±S.E.M. Statistical comparisons were made with Student's t test. A 2-tailed probability<0.05 was taken to indicate statistical significance. In data tables, * denotes P<0.05, **P<0.01.
Group 2 (6 dogs): Five dogs received ranolazine as a 0.5 mg/kg iv load followed by a first, a second and a third continuous iv infusion of 1.0, 3.0 and 15 mg/kg/hr, respectively. One dog received ranolazine as a 1.5 mg/kg iv load followed by infusions of 15 and 30 mg/kg/hr. […] The phenylephrine challenges were then given, with all doses given at each drug infusion rate, and any arrhythmias monitor.

[1] = target: T1, L-type calcium current (ICa) (Canis lupus familiaris, UniProt A0A8I3QY31); assay: L-type calcium current voltage clamp in isolated canine left ventricular myocytes; assay type: cell-based; settings: read-out: Concentration at which ranolazine blocks the calcium channel
T1 construct: Single myocytes were obtained by enzymatic dissociation from a wedge-shaped section of the ventricular free wall; endogenous in cells; host or cells: isolated canine left ventricular myocytes
T1 sequence (A0A8I3QY31 1-2188): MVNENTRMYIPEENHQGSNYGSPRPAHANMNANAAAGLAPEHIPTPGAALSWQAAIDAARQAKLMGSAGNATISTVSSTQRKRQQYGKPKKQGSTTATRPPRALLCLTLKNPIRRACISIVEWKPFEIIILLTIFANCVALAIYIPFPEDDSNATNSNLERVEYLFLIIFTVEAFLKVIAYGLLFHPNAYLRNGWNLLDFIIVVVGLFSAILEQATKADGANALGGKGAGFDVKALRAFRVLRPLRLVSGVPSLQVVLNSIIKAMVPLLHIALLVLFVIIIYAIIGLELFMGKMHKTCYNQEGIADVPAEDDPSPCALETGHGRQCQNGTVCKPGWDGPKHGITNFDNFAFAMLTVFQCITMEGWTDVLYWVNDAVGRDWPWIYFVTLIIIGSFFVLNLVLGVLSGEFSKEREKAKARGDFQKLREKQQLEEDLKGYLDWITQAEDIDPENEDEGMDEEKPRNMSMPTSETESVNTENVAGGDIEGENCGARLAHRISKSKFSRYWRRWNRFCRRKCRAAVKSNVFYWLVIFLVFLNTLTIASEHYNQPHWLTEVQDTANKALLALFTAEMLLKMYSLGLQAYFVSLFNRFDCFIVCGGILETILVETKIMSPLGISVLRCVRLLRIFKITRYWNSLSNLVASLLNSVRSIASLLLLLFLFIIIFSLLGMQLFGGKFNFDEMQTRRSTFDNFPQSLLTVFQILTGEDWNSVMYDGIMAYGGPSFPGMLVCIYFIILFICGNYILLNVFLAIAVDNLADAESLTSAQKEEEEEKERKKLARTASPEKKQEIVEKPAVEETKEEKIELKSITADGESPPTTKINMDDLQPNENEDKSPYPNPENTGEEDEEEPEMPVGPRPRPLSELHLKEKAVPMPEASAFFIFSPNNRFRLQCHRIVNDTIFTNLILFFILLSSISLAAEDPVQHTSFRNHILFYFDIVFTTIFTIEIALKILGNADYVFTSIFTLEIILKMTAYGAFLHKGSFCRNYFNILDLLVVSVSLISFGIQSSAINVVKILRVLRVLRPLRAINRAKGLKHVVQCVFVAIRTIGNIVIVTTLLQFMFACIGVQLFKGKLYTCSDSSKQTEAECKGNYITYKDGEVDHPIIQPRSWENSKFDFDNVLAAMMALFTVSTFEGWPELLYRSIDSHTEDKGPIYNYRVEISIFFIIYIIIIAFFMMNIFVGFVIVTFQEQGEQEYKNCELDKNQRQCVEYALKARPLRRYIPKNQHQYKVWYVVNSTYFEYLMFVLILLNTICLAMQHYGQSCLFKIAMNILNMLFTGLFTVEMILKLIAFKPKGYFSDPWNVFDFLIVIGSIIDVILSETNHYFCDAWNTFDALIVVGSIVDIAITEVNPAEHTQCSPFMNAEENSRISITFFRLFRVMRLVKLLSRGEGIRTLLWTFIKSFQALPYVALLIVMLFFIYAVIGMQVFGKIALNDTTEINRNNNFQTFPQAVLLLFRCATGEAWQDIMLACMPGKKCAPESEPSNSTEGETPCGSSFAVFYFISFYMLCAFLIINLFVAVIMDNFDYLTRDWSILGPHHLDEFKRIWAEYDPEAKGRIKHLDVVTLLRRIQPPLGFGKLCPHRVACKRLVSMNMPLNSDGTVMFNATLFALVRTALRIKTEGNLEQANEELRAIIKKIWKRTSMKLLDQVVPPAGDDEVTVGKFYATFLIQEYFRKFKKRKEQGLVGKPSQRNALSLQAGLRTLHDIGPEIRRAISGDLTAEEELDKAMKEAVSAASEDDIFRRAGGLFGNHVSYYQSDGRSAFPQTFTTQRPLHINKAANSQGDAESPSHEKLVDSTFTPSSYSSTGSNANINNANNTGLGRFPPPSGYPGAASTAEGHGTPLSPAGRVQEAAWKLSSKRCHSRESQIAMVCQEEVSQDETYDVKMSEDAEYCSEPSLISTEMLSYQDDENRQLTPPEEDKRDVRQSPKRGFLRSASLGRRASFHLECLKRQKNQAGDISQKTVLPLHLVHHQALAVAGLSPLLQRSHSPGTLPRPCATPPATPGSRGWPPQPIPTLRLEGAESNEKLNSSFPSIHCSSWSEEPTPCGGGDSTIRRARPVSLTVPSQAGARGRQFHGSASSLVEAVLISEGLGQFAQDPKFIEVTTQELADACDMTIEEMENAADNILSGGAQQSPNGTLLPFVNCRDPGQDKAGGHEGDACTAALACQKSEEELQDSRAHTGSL

[2] = ranolazine 0.5 mg/kg iv load + 1.0 mg/kg/hr, BCL 300
[3] = ranolazine 0.5 mg/kg iv load + 1.0 mg/kg/hr, BCL 400
[4] = ranolazine 0.5 mg/kg iv load + 1.0 mg/kg/hr, BCL 600
[5] = ranolazine 3.0 mg/kg/hr, BCL 300
[6] = ranolazine 3.0 mg/kg/hr, BCL 400
[7] = ranolazine 3.0 mg/kg/hr, BCL 600
[8] = ranolazine 3.0 mg/kg/hr, BCL 1000
[9] = ranolazine 15 mg/kg/hr, BCL 400
[10] = ranolazine 15 mg/kg/hr, BCL 600
[11] = ranolazine 15 mg/kg/hr, BCL 1000

Q: What does the source list for `COc1ccccc1OCC(O)CN1CCN(CC(=O)Nc2c(C)cccc2C)CC1` (racemic) [ranolazine, N-(2,6-dimethylphenyl)-4-[2-hydroxy-3-(2-methoxyphenoxy)propyl]-1-piperazineacetamide]?
A: Induction of torsades de pointes and/or ventricular fibrillation (anesthetized dog; dog, in vivo): unable to induce any; Maximum increase of QT interval (anesthetized dog; dog, in vivo, 3 mg/kg, 30 min): about 10%; Arrhythmia occurrence (anesthetized dog; dog, in vivo, 30 min): VT 13 beats,; Mean ERP-LV + SE (anesthetized dog; [2]): 185.00 ± 8.1 ms; Mean ERP-RV + SE (anesthetized dog; [2]): 182.84 ± 6.67 ms; Mean ERP-LV + SE (anesthetized dog; [3]): 204.38 ± 11.01 ms; Mean ERP-RV + SE (anesthetized dog; [3]): 201.50 ± 6.45 ms; Mean ERP-LV + SE (anesthetized dog; [4]): 233.13 ± 12.43 ms; Mean ERP-RV + SE (anesthetized dog; [4]): 227.50 ± 8.87 ms; Mean ERP-LV + SE (anesthetized dog; ranolazine 0.5 mg/kg iv load + 1.0 mg/kg/hr, BCL 1000): 259.38 ± 18.18 ms; Outcome of the high-dose dog (anesthetized dog; ranolazine 1.5 mg/kg iv load, 15 then 30 mg/kg/hr infusion): died of pump failure; Mean ERP-LV + SE (anesthetized dog; [5]): 189.38 ± 8.32 ms; Mean ERP-RV + SE (anesthetized dog; [5]): 181.00 ± 2.32 ms; Mean ERP-LV + SE (anesthetized dog; [6]): 211.45 ± 9.2 ms; Mean ERP-RV + SE (anesthetized dog; [6]): 199.66 ± 3.75 ms; Mean ERP-LV + SE (anesthetized dog; [7]): 238.13 ± 13.25 ms; Mean ERP-RV + SE (anesthetized dog; [7]): 224.50 ± 4.83 ms; Mean ERP-LV + SE (anesthetized dog; [8]): 265.43 ± 19.42 ms; Mean ERP-RV + SE (anesthetized dog; [8]): 249.50 ± 6.19 ms; Mean ERP-RV + SE (anesthetized dog; ranolazine 15 mg/kg/hr, BCL 300): 185.00 ± 5.76 ms; Mean ERP-LV + SE (anesthetized dog; [9]): 215.00 ± 10.05 ms; Mean ERP-RV + SE (anesthetized dog; [9]): 206.50 ± 5.79 ms; Mean ERP-LV + SE (anesthetized dog; [10]): 237.50 ± 14.11 ms; Mean ERP-RV + SE (anesthetized dog; [10]): 229.50 ± 6.19 ms; Mean ERP-LV + SE (anesthetized dog; [11]): 260.43 ± 19.32 ms; Mean ERP-RV + SE (anesthetized dog; [11]): 253.16 ± 7.77 ms; Mean increase of ERP (anesthetized dog; ranolazine infusions): ≤ 10%; IC50 [1]: 296 µM
